Measured values as given in US20090081170A1, “Cardiac progenitor cells” (priority 2007, published 2009).

Columns and labels:
[1] = test system: adult intact mouse hearts; test: Gain of function model: Tβ4 administration to intact adult mice (western, immunofluorescence, perfused vessel counts); assay type: in vivo
Experimental: For in vivo studies, Western blotting, immunofluorescence and immunohistochemistry were performed using standard protocols with the following antibodies: Ki67 (Dako Cytomation), SMαA, sarcomeric α-actinin (Sigma), cardiac myosin binding protein C (E. Ehler), CD31/PECAM-1, CD4, CD8b (all BD Pharmingen), Nkx2.5, VEGF, Tie-2 (all Santa Cruz), GAPDH, Tbx18 (both Chemicon), Isl-1 (clone 39.4D5, Developmental Studies Hybridoma Bank), Tbx18, TNFα, IL-6, IL-10, GFP (full length—detects EYFP), MCP1, cTnT, F4/80, CD45, MPO, (all abcam), Living colours Av peptide, polyclonal and mouse monoclonal JL-8 antibodies (detect EYFP, Clontech) Cx43 (Zymed) and Raldh2 (gift of P. McCaffery). Images were acquired using either a Zeiss Axiolmager with ApoTome or a Zeiss LSM 510 confocal microscope equipped with argon and helium neon lasers using a 63×/1.4 lens.
Wild type (WT) C57B1/6 or Cx40-EGFP [46] male mice (25-30 g) received intraperitoneal injection of Tβ4 (150 μg in 0.1 ml PBS) or vehicle (0.1 ml PBS) every 2 days for up to 1 week or every 3 days for up to 4 weeks. Doses were based on previous studies. WT hearts were harvested after 2, 4, 7, 14 and 28 days and bisected transversely; the apex was snap frozen for protein preparation and the remaining tissue was fixed in 4% PFA for 2 hours for cryosectioning. Cx40-EGFP hearts were harvested after 7, 14 and 28 days and fixed, as above, for cryosectioning. Prior to harvest at the 28 d time point, Cx40-EGFP mice were intravenously injected with rhodamine-conjugated dextran (70 kDa, Invitrogen) at 2 mg per 20 g body weight, to assess coronary vessel perfusion.
The minimum requirement for Tβ4 to promote EPDC-derived vascular endothelial and smooth muscle cells, was reported previously. To investigate whether Tβ4 could stimulate new vessel growth in vivo, we established a gain of function mouse model by intraperitoneal injection of Tβ4 or vehicle (injections of 150 μg in 0.1 ml PBS every 2 days for first 4 days and every 3 days thereafter) into wild type 8 week old adult mice. Hearts were examined by western analysis and immunohistochemistry (IHC) for vascular markers and evidence of new coronaries at 2, 4, 7, 14 and 28 days post-treatment.
We next determined the presence of adult EPDC-derived cardiomyocytes in vivo, in both a gain of function (intact heart) mouse model, established by intraperitoneal injection of Tβ4 or vehicle (PBS) into wild type adult mice, and an injury model of myocardial infarctions (by coronary artery ligation) in adult mice (n=27 MIs in total), treated with either Tβ4

[2] = test system: infarcted mouse hearts; test: Myocardial infarction model (coronary artery ligation) treated with Tβ4 or vehicle; assay type: in vivo
Experimental: For in vivo studies, Western blotting, immunofluorescence and immunohistochemistry were performed using standard protocols with the following antibodies: Ki67 (Dako Cytomation), SMαA, sarcomeric α-actinin (Sigma), cardiac myosin binding protein […]-1, CD4, CD8b (all BD Pharmingen), Nkx2.5, VEGF, Tie-2 (all Santa Cruz), GAPDH, Tbx18 (both Chemicon), Isl-1 (clone 39.4D5, Developmental Studies Hybridoma Bank), Tbx18, TNFα, IL-6, IL-10, GFP (full length-detects EYFP), MCP1, cTnT, F4/80, CD45, MPO, (all abcam), Living colours Av peptide, polyclonal and mouse monoclonal JL-8 antibodies (detect EYFP, Clontech) Cx43 (Zymed) and Raldh2 (gift of P. McCaffery). Images were acquired using either a Zeiss Axiolmager with ApoTome or a Zeiss LSM 510 confocal microscope equipped with argon and helium neon lasers using a 63×/1.4 lens. Adult heart samples post myocardial infarction (MI) were kindly provided by James Clark, Cardiovascular Division, King's College London, St. Thomas' Hospital. Briefly, MI was induced in anaesthetised C57B1/6 male mice by ligation of the left anterior descending coronary artery for 30 minutes, followed by reperfusion. Animals were sacrificed one hour, one day or one week post MI and protein extracts prepared in Laemmli buffer for Western blotting and immunoassay to determine levels of Tβ4 and AcSDKP, respectively. For in vivo studies, one hour after recovery, animals received intraperitoneal injection of Tβ4 (150 μg in 0.1 ml PBS) or vehicle (0.1 ml PBS) as previously reported. Further injections were given after 2 and 4 days and hearts were harvested after 2, 4 and 7 days following ligation and prepared for western analysis and histological sectioning, as described above. Infarcts with equivalent extent of injury in the left ventricle were assessed for immunofluorescence and cell counts. […] We next determined the presence of adult EPDC-derived cardiomyocytes in vivo, in both a gain of function (intact heart) mouse model, established by intraperitoneal injection of Tβ4 or vehicle (PBS) into wild type adult mice, and an injury model of myocardial infarctions (by coronary artery ligation) in adult mice (n=27 MIs in total), treated with either Tβ4 (n=13) or vehicle (n=14, injection regimen as for gain of function; refer to Methods). Hearts were assessed using a combination of western and immunofluorescence analyses for myocardial markers after 2, 4, 7, 14 and 28 days for the gain of function model and 2, 4 and 7 days for the injury model.

[3] = intact heart, 2 days of treatment
[4] = intact heart, days 2-7 of treatment, 150 μg i.p.
[5] = infarcted hearts, 2 days of treatment, n=3, 35 fields

Substance: Thymosin β4 [Tβ4]
- increase in numbers of perfused coronary vessels vs controls ([1]; Cx40-EGFP mice, rhodamine-dextran, 28 days of treatment): 1.2 fold
- number of perfused vessels per section +/−SEM ([1]; Cx40-EGFP mice, rhodamine-dextran, 28 days of treatment, n=3): 70.7+/−3.62
- Raldh2 up-regulation vs vehicle (western) ([1]; gain of function, intact heart): 6.3 fold
- Tbx18 up-regulation vs vehicle (western) ([1]; gain of function, intact heart): 5.3 fold
- phospho-histone H3 (P-HH3) elevated levels (proliferation) ([1]; intact heart): 9.1 fold
- PECAM increase vs controls (western) [1, 3]: 9.3 fold
- SMαA increase vs controls (western) [1, 3]: 9.8 fold
- Tie2 increase vs controls (western) [1, 3]: 2 fold
- VEGF increase vs controls (western) [1, 3]: 4.8 fold
- Isl-1 up-regulation vs vehicle (western) [1, 4]: 4.3 fold
- Nkx2.5 up-regulation vs vehicle (western) [1, 4]: 2.7 fold
- TNF-α reduction vs vehicle (western) ([2]; 2 days of treatment post-MI): 6.2 fold
- IL-10 increase compared to control (western) ([2]; 2 days post-MI): 8.1 fold
- infarct area (Image J) ([2]; 2 days post-MI, section through left ventricle wall): 0.292 mm^2
- increase in vessel area vs control (Image J) ([2]; 7 days of treatment post-MI): 2 fold
- vessel area/field ([2]; 7 days of treatment post-MI, n=7): 10.67+/−0.55%
- scar volume vs vehicle (trichrome) ([2]; 7 days post MI): reduced scar volume
- epicardial fibrosis, share of the epicardium affected ([2]; 7 days post MI, trichrome): ≤ 20%
- EPDC-derived (EYFP+) cardiomyocytes, % of total cardiomyocytes per field ([2]; Gata5-EYFP mice, 7 days treatment post-MI): 14.1%
- EYFP+ cardiomyocytes, mean number of positive cells/field +/−SEM ([2]; Gata5-EYFP mice, 7 days treatment post-MI, n=6, 38 fields): 49.53+/−4.68 cells/field
- Raldh2 up-regulation vs vehicle (western) ([2]; d2 MI): 1.8 fold
- Tbx18 up-regulation vs vehicle (western) ([2]; d2 MI): 2.8 fold
- infiltration of MPO+ neutrophils vs controls ([2]; d2 and d4 post-MI): reduced infiltration
- macrophages (F4/80+) vs vehicle ([2]; d2 post MI): elevated
- CD4:CD8 ratio ([2]; d4 post-MI): 7.4
- CD4:CD8 ratio ([2]; d7 post-MI): 10.8
- PECAM protein expression increase (western) ([2]; d7 post-MI): 9.6 fold
- SMαA protein expression increase (western) ([2]; d7 post-MI): 8.3 fold
- macrophages (F4/80+) vs vehicle ([2]; d7 post-MI): reduced
- fibroblast number (EYFP+/procollagen type I) vs control ([2]; d7 post-MI, p=0.57): did not vary significantly
- EYFP+ cardiomyocytes located in remote myocardium, % of total EYFP+ cardiomyocytes per field ([2]; day 7 post-MI, left ventricle): 40%
- EYFP+ cardiomyocytes proximal to the border zone, % of total EYFP+ cardiomyocytes per field ([2]; day 7 post-MI, left ventricle): 58%
- IL-6 reduction vs vehicle (western) ([2]; early stages post-MI): 4.1 fold
- MCP-1 up-regulation (western) ([2]; early, d2 post-MI): 3.9 fold
- proliferation of cells (Ki67) within the epicardium and subepicardial space ([2]; following MI): increase in proliferation
- Isl1 elevated levels (western) ([2]; from 2 days post-MI onwards): 5.1 fold
- Nkx2.5 elevated levels (western) ([2]; from 2 days post-MI onwards): 1.9 fold
- Raldh2+ mean number of positive cells per field +/−SEM [2, 5]: 41.8+/−1.9 cells per field
- Tbx18+ mean number of positive cells per field +/−SEM [2, 5]: 36.1+/−3.1 cells per field
- increase in number of endothelial (PECAM+) cells vs vehicle ([2]; infarcted hearts, 4 days): 3.5 fold
- PECAM+ number of cells per field +/−SEM ([2]; infarcted hearts, 4 days, n=3): 150.33+/−10.94 cells per field
- MCP-1 levels (in words) ([2]; initial stages post-MI): significantly reduced levels
- levels of MMP3 and -9 ([2]; post MI): reduced levels
- levels of TIMP1 and -2 ([2]; post MI): without an effect
- P-NFκB positive cells at the infarct border zone ([2]; post-MI, immunostaining): reduced number
